# In US20040198763A1, “Method of treating dry eye with a macrolide compound” (Sucampo AG, priority 2003, published 2004):
# Key:
# [1] = test system: Human patients diagnosed as having kerratoconjunctivitis sicca (KCS; dry eye); assay: Conjunctival lissamine green staining in dry eye patients treated with eye drops; assay type: in vivo; conditions: day 42, patients with Schirmer score <5 mm/5 min and SPK score at least 3
# Experimental: Human patients diagnosed as having kerratoconjunctivitis sicca (KCS; dry eye) were treated with eye drops containing either various concentrations of tacrolimus, a macrolide compound according to the invention or placebo. Eye drops were administered 3 times per day for six weeks (42 days). Patients were evaluated using the Schirmer test; corneal fluorescein staining, conjunctival lissamine green staining and an ocular discomfort score. Conjunctival lissamine green staining was performed by instilling a drop of lissamine green ophthalmic solution into the cul-de-sac of the eye. Following instillation, punctate staining was evaluated for the nasal and temporal interpalpebral conjunctiva using the following scoring system: [table]
# [2] = test system: Human patients diagnosed as having kerratoconjunctivitis sicca (KCS; dry eye); assay: Ocular discomfort score in dry eye patients treated with eye drops; assay type: in vivo; conditions: day 42, patients with Schirmer score <5 mm/5 min and SPK score at least 3
# Experimental: Human patients diagnosed as having kerratoconjunctivitis sicca (KCS; dry eye) were treated with eye drops containing either various concentrations of tacrolimus, a macrolide compound according to the invention or placebo. Eye drops were administered 3 times per day for six weeks (42 days). Patients were evaluated using the Schirmer test; corneal fluorescein staining, conjunctival lissamine green staining and an ocular discomfort score. Patients were also evaluated based on ratings of their ocular discomfort, which was a composite of scores for burning/stinging, irritation, photophobia, dry eye sensation and foreign body sensation. Scoring was on a five-point scale, as follows: [table]
# [3] = 0.01% eye drops 3 times per day
# [4] = 0.06% eye drops 3 times per day
compound,measurement,setting,value
C=CCC1/C=C(\C)CC(C)CC(OC)C2OC(O)(C(=O)C(=O)N3CCCCC3C(=O)OC(/C(C)=C/C3CCC(O)C(OC)C3)C(C)C(O)CC1=O)C(C)CC2OC (stereo not shown) [macrolide compound],lissamine green staining decrease from baseline,[1]; [3],1.8±1.47 units
same,lissamine green staining decrease from baseline,[1]; [4],3.9±2.03 units
same,mean ocular discomfort decrease from baseline,[2]; [3],6.0±4.43 units
same,mean ocular discomfort decrease from baseline,[2]; [4],6.8±3.01 units
